The results in this text go back to patent publication US9464063B2, “Benzo [B] [1,4] oxazin derivatives as calcium sensing receptor modulators” (LUPIN ATLANTIS HOLDINGS SA, priority 2011, dated 2016).

The structures appear in SMILES notation. pEC50: −log10 of the molar value. Structures can show the parent of a compound that is named as a salt.

For this experiment, the target named is T1, Calcium sensing receptor (hCaSR) (Homo sapiens, UniProt P41180).
T1 construct: expressed in transfected cells
T1 sequence (P41180 20-1078): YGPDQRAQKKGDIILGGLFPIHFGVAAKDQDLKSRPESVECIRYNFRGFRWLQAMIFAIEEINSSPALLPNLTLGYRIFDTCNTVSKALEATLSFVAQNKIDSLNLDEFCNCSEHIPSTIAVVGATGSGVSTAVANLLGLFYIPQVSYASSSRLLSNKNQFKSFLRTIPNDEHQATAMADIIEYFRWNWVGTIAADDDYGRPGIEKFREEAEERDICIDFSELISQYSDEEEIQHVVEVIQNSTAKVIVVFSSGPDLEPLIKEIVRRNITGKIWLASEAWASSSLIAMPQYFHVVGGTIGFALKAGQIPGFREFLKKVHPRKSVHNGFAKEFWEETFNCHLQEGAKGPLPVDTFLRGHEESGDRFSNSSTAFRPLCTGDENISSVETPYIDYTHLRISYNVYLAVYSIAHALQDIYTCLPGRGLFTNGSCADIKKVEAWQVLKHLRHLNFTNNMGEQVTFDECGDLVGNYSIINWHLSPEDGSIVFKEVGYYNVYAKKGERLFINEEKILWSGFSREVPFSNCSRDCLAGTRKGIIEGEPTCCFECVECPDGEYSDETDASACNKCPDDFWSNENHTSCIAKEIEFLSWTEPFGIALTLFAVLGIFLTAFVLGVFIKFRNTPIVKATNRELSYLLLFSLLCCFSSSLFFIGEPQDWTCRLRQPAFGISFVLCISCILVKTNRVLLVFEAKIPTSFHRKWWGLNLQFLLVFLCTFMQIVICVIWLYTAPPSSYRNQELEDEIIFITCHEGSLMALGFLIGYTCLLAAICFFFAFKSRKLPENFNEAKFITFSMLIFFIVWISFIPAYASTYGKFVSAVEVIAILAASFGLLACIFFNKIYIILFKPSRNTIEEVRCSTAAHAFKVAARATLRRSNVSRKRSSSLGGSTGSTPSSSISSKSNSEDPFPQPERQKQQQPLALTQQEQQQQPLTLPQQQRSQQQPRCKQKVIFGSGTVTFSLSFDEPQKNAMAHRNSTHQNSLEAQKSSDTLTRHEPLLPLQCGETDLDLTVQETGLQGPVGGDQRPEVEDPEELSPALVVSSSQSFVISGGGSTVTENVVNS
The experiment in a line: In-vitro assay of calcimimetics through modulation of calcium sensing receptor: increase in intracellular calcium [Ca2+]i, FLIPR. Type of experiment: cell-based. The settings on record: stably transfected HEK293 cells expressing hCaSR; Fluo4NW dye; 0.3 mM CaCl2; 8-point assay; read-out: EC50 Range. Here is the method:
In-Vitro Assay Method of Calcimemtics Through Modulation of Calcium Sensing Receptor (CaSR):
The ability of the compounds to modulate Calcium sensing receptor is determined by measuring an increase in intracellular calcium [Ca^2+]i. Stably transfected HEK293 cells expressing hCaSR_pTriEx-3 hygro vector are developed. Cells are grown overnight on a 96-well plate to 80% confluency in Ham's F12 containing 20% FBS at 37° C., 5% CO2. Subsequently, cells are washed extensively with 20 mM HEPES buffer containing 126 mM NaCl, 1 mM MgCl2 and 4 mM KCl to remove serum components that might interfere with the assay. Cells are loaded with calcium sensing Fluo4NW dye in HEPES base buffer containing 0.1% BSA and 1 mg/ml glucose for 30 minutes to measure changes in intracellular calcium. The activities of the compounds are measured in FLIPR using 0.3 mM CaCl2 in 20 mM HEPES base buffer. The effectiveness of the compound to modulate receptor activity is determined by calculating the EC50 responses for that compound in an 8-point assay and plotted using GraphPad Prism 5.

Take `Cc1ccc(N2CC(CN[C@H](C)c3cccc4ccccc34)Oc3ccccc32)c(C)c1C(=O)O` (single isomer, unassigned) [Example 70b, hydrochloride]: the pEC50 (in general, −log10 of the EC50, conventionally taken in molar units) is over 7.70.

As to `Cc1ccc(N2CC(CN[C@H](C)c3cccc4ccccc34)Oc3ccccc32)cc1C(=O)O` (single isomer, unassigned) [Example 71b, hydrochloride], the pEC50 is over 7.70.

For the compound `C[C@@H](NCC1CN(c2ccc(O)c(C(=O)O)c2)c2ccccc2O1)c1cccc2ccccc12` (single isomer, unassigned) [Example 66a, hydrochloride], the pEC50 was 7.30 to 7.70.

For `Cc1ccc(N2CC(CN[C@H](C)c3cccc4ccccc34)Oc3ccccc32)cc1OCC(=O)O` (single isomer, unassigned) [Example 76a, hydrochloride], the negative-log EC50 (pEC50) was over 7.70.

In the case of `COC(=O)c1ccc(N2CC(CN[C@H](C)c3cccc4ccccc34)Oc3ccccc32)cc1` (single isomer, unassigned) [Example 2a, hydrochloride], the pEC50 was 6.70 to 7.30.

In the case of `C[C@@H](NCCC1CN(c2ccc(OCC(=O)O)cc2)c2cccc(F)c2O1)c1cccc2ccccc12` (single isomer, unassigned) [Example 164a, hydrochloride], the pEC50 is over 7.70.

With `COC(=O)c1cc(N2CC(CN[C@H](C)c3cccc4ccccc34)Oc3ccccc32)ccc1C` (single isomer, unassigned) [Example 31b], the pEC50 was over 7.70.

As to `CC(C)c1ccc(N2CC(CCN[C@H](C)c3cccc4ccccc34)Oc3ccccc32)cc1C(=O)O` (stereo partly drawn) [Example 137a, 2-Isopropyl-5-(2-(2-(((R)-1-(naphthalen-1-yl)ethyl)amino)ethyl)-2H-benzo[b] [1,4]oxazin-4(3H)-yl) benzoic acid hydrochloride], the negative logarithm of the EC50 (pEC50) was 6.70 to 7.30.

For the compound `CCOC(=O)c1c(C)ccc(N2CC(CN[C@H](C)c3cccc4ccccc34)Oc3ccccc32)c1C` (single isomer, unassigned) [Example 24b], the pEC50 was 7.30 to 7.70.

As for `Cc1c(C(=O)O)cccc1N1CC(CN[C@H](C)c2cccc3ccccc23)Oc2ccccc21` (single isomer, unassigned) [Example 58a, hydrochloride], the pEC50 is 7.30 to 7.70.

As for `C[C@@H](NCC1CN(c2cccc(OCC(=O)O)c2)c2ccccc2O1)c1cccc2ccccc12` (stereo partly drawn) [Example 50, 2-(3-(2-((((R)-1-(naphthalen-1-yl)ethyl)amino)methyl)-2H-benzo[b] [1,4]oxazin-4(3H)-yl)phenoxy)acetic acid hydrochloride], the negative logarithm of the EC50 (pEC50) is 7.30 to 7.70.

Regarding `C[C@@H](NCC1CN(c2ccc(C(=O)O)cc2)c2ccccc2O1)c1cccc2ccccc12` (stereo partly drawn) [Example 6, 4-(2-((((R)-1-(Naphthalen-1-yl)ethyl)amino)methyl)-2H-benzo[b][1,4]oxazin-4(3H)-yl)benzoic acid hydrochloride], the negative logarithm of the EC50 (pEC50) is 6.70 to 7.30.

Take `C[C@@H](NCCC1CN(c2cccc(C(=O)O)c2)c2cccc(F)c2O1)c1cccc2ccccc12` (single isomer, unassigned) [Example 160a, hydrochloride]: the pEC50 was over 7.70.

`Cc1ccc(N2CC(CCN[C@H](C)c3cccc4ccccc34)Oc3ccccc32)cc1C(=O)O` (single isomer, unassigned) [Example 133b, hydrochloride]: the pEC50 is over 7.70.

As for `C[C@@H](NCC1CN(c2ccc(CCC(=O)O)cc2)c2ccccc2O1)c1cccc2ccccc12` (stereo partly drawn) [Example 48, 3-(4-(2-((((R)-1-(naphthalen-1-yl)ethyl)amino)methyl)-2H-benzo [b][1,4]oxazin-4(3H)-yl)phenyl)propanoic acid], the pEC50 is 6.70 to 7.30.

With `C[C@@H](NCC1CN(c2cccc(C(=O)O)c2)c2ccccc2O1)c1cccc2ccccc12` (stereo partly drawn) [Example 41, 3-(2-((((R)-1-(Naphthalen-1-yl)ethyl)amino)methyl)-2H-benzo[b][1,4]oxazin-4(3H)-yl)benzoic acid hydrochloride], the negative logarithm of the EC50 (pEC50) is 7.30 to 7.70.

On to `C[C@@H](NCCC1CN(c2cccc(OCC(=O)O)c2)c2ccccc2O1)c1cccc2ccccc12` (stereo partly drawn) [Example 138a, 2-(3-(2-(2-(((R)-1-(Naphthalen-1-yl)ethyl)amino)ethyl)-2H-benzo[b][1,4]oxazin-4(3H)-yl)phenoxy)aceticacid hydrochloride], for which the pEC50 was over 7.70.

With `Cc1ccc(N2CC(CN[C@H](C)c3cccc4ccccc34)Oc3ccccc32)cc1OC(C)(C)C(=O)O` (single isomer, unassigned) [Example 77a, hydrochloride], the pEC50 was 6.70 to 7.30.

As to `C[C@@H](NCCC1CN(c2cccc(C(=O)O)c2)c2cc(F)ccc2O1)c1cccc2ccccc12` (single isomer, unassigned) [Example 167b], the pEC50 was 7.30 to 7.70.

Consider `C[C@@H](NCC1CN(c2cccc(CC(=O)O)c2)c2ccccc2O1)c1cccc2ccccc12` (stereo partly drawn) [Example 69, 2-(3-(2-((((R)-1-(Naphthalen-1-yl)ethyl)amino)methyl)-2H-benzo [b][1,4]oxazin-4(3H)-yl)phenyl)acetic acid hydrochloride], for which the pEC50 is 6.70 to 7.30.

Regarding `Cc1cc(N2CC(CN[C@H](C)c3cccc4ccccc34)Oc3ccccc32)ccc1C(=O)O` (single isomer, unassigned) [Example 73b, hydrochloride], the pEC50 is over 7.70.

Turning to `Cc1ccc(N2CC(CCN[C@H](C)c3cccc4ccccc34)Oc3ccc(F)cc32)cc1C(=O)O` (single isomer, unassigned) [Example 166a, hydrochloride], the pEC50 was over 7.70.

As to `Cc1cc(N2CC(CCN[C@H](C)c3cccc4ccccc34)Oc3ccccc32)ccc1C(=O)O` (stereo partly shown) [Example 134a, 2-Melhyl-4-(2-(2-(((R-1-(naphthalen-1-yl)ethyl)amino)ethyl)-2H-benzo[b] [1,4]oxazin-4(3H)-yl)benzoic acid hydrochloride], the pEC50 was 6.70 to 7.30.

As for `C[C@@H](NCCC1CN(c2ccc(OCC(=O)O)cc2)c2cc(F)ccc2O1)c1cccc2ccccc12` (single isomer, unassigned) [Example 168a], the pEC50 was over 7.70.

As to `COc1cc(C(=O)O)cc(N2CC(CN[C@H](C)c3cccc4ccccc34)Oc3ccccc32)c1` (stereo partly drawn) [Example 54, 3-Methoxy-5-(2-((((R)-1-(naphthalen-1-yl)ethyl)amino)methyl)-2H-benzo [b][1,4]oxazin-4(3H)-yl) benzoic acid hydrochloride], the pEC50 was 6.70 to 7.30.

For the compound `Cc1ccc(N2CC(CCN[C@H](C)c3cccc4ccccc34)Oc3ccccc32)c(C)c1C(=O)O` (stereo partly drawn) [Example 148a, 2,6-Dimethyl-3-(2-(2-(((R)-1-(naphthalen-1-yl)ethyl)amino)ethyl)-2H-benzo[b] [1,4]oxazin-4(3H)-yl) benzoic acid hydrochloride], the pEC50 was over 7.70.

Regarding `C[C@@H](NCCC1CN(c2cccc(OCC(=O)O)c2)c2c(F)cccc2O1)c1cccc2ccccc12` (single isomer, unassigned) [Example 171a, hydrochloride], the pEC50 is over 7.70.

Consider `C[C@@H](NCC1CN(c2ccc(C(=O)O)c(C(F)(F)F)c2)c2ccccc2O1)c1cccc2ccccc12` (single isomer, unassigned) [Example 64b, hydrochloride], for which the pEC50 is over 7.70.

Take `COC(=O)c1cc(N2CC(CN[C@H](C)c3cccc4ccccc34)Oc3ccccc32)ccc1C` (single isomer, unassigned) [Example 31a]: the pEC50 was 7.30 to 7.70.

`Cc1ccc(N2CC(CN[C@H](C)c3cccc4ccccc34)Oc3cc(F)ccc32)cc1C(=O)O` (stereo partly drawn) [Example 84, 5-(7-Fluoro-2-((((R)-1-(naphthalen-1-yl)ethyl)amino)methyl)-2H-benzo[b][1,4]oxazin-4(3H)-yl)-2-methyl benzoic acid hydrochloride]: the pEC50 is 7.30 to 7.70.

With `C[C@@H](NCC1CN(c2ccc(C(F)(F)F)c(C(=O)O)c2)c2ccccc2O1)c1cccc2ccccc12` (single isomer, unassigned) [Example 60a, hydrochloride], the negative logarithm of the EC50 (pEC50) is 7.30 to 7.70.
